Measurements from patent US20200407365A1, “INDOLE-2-CARBONYL COMPOUNDS AND THEIR USE FOR THE TREATMENT OF HEPATITIS B” (Novartis AG, priority 2018, published 2020).

What follows are compounds tested on HBV replication in HepG2.cl42 cells (assay: Anti-HBV assay (HBV DNA by quantitative real time PCR in HepG2.cl42 cells)). Settings: Hepatitis B virus, 96 h, compound treatment four days, read-out: HBsAg EC50.
Assay type: cell-based, HBV ayw strain
`CC1(C)CN(c2cnn3c2CN(C(=O)c2cc4ccccc4[nH]2)CC3)C(=O)O1` [Compound 2.1, 3-(5-(1H-indole-2-carbonyl)-4,5,6,7-tetrahydropyrazolo[1,5-a]pyrazin-3-yl)-5,5-dimethyloxazolidin-2-one] showed an EC50 of under 100 nM. Compound `CC1(C)CN(c2cnn3c2CN(C(=O)c2cc4cccc(Cl)c4[nH]2)CC3)C(=O)O1` [Compound 2.9] has an EC50 of 100 to 1000 nM. `COC[C@@H]1CN(c2cnn3c2CN(C(=O)c2cc4ccccc4[nH]2)CC3)C(=O)CO1` [Compound 1.3] showed an EC50 of 100 to 1000 nM. In the case of `COc1cccc2cc(C(=O)N3CCn4ncc(N5CC(C)(C)OC5=O)c4C3)[nH]c12` [Compound 2.19], the EC50 is reported as over 1000 nM. Work on `O=C(c1cc2ccccc2[nH]1)N1CCn2ncc(N3CCCCC3=O)c2C1` [Compound 1.6] yielded an EC50 of 100 to 1000 nM. `CC1(C)CN(c2cnn3c2CN(C(=O)c2cc4ccc(F)cc4[nH]2)CC3)C(=O)O1` [Compound 2.7] gave an EC50 of under 100 nM. Compound `C[C@H]1Cn2ncc(N3CC(C)(C)OC3=O)c2CN1C(=O)c1cc2ccccc2[nH]1` [Compound 2.23] has an EC50 of over 1000 nM. With `COc1ccc2cc(C(=O)N3CCn4ncc(N5CC(C)(C)OC5=O)c4C3)[nH]c2c1` [Compound 2.13] the EC50 was 100 to 1000 nM. For `CC1(C)CN(c2cnn3c2CN(C(=O)c2[nH]c4ccccc4c2Cl)CC3)C(=O)O1` [Compound 2.5], the EC50 was over 1000 nM. `CC1(C)CN(c2cnn3c2CN(C(=O)c2cc4cnc(Cl)cc4[nH]2)CC3)C(=O)O1` [Compound 2.21] gave an EC50 of 100 to 1000 nM. `CC1(C)CN(c2cnn3c2CN(C(=O)c2cc4c(F)cccc4[nH]2)CC3)C(=O)O1` [Compound 2.22] showed an EC50 of under 100 nM. In the case of `COC[C@@H]1CN(c2cnn3c2CN(C(=O)c2cc4ccccc4[nH]2)CC3)C(=O)O1` [Compound 3.2], the EC50 is reported as 100 to 1000 nM. Compound `CC1(C)CN(c2cnn3c2CN(C(=O)c2cc4cccc(F)c4[nH]2)CC3)C(=O)O1` [Compound 2.17] has an EC50 of 100 to 1000 nM. In the case of `O=C(c1cc2ccccc2[nH]1)N1CCn2ncc(N3CCOCC3=O)c2C1` [Compound 1.4], the EC50 is reported as 100 to 1000 nM. Work on `CC1(C)CN(c2cnn3c2CN(C(=O)c2[nH]c4ccccc4c2C#N)CC3)C(=O)O1` [Compound 2.4] yielded an EC50 of over 1000 nM. For `Cc1cccc2[nH]c(C(=O)N3CCn4ncc(N5CC(C)(C)OC5=O)c4C3)cc12` [Compound 2.14], the EC50 was under 100 nM. `CC1(C)CCN(c2cnn3c2CN(C(=O)c2cc4ccccc4[nH]2)CC3)C1=O` [Compound 1.1, 1-(5-(1H-indole-2-carbonyl)-4,5,6,7-tetrahydropyrazolo[1,5-a]pyrazin-3-yl)-3,3-dimethylpyrrolidin-2-one] showed an EC50 of over 1000 nM. `CC1(C)CN(c2cnn3c2CN(C(=O)c2cc4cc(Cl)ccc4[nH]2)CC3)C(=O)O1` [Compound 2.16] gave an EC50 of 100 to 1000 nM. For `Cc1cccc2cc(C(=O)N3CCn4ncc(N5CC(C)(C)OC5=O)c4C3)[nH]c12` [Compound 2.18], the EC50 was 100 to 1000 nM. Work on `Cc1ccc2cc(C(=O)N3CCn4ncc(N5CC(C)(C)OC5=O)c4C3)[nH]c2c1` [Compound 2.12] yielded an EC50 of under 100 nM. `CC1(C)CN(c2cnn3c2CN(C(=O)c2cc4c(Cl)cccc4[nH]2)CC3)C(=O)O1` [Compound 2.20] gave an EC50 of under 100 nM. `COc1ccc2[nH]c(C(=O)N3CCn4ncc(N5CC(C)(C)OC5=O)c4C3)cc2c1` [Compound 2.10] gave an EC50 of over 1000 nM. With `CCc1c(C(=O)N2CCn3ncc(N4CC(C)(C)OC4=O)c3C2)[nH]c2ccccc12` [Compound 2.3] the EC50 was over 1000 nM. With `CC1(C)CN(c2cnn3c2CN(C(=O)c2cc4ccc(C#N)cc4[nH]2)CC3)C(=O)O1` [Compound 2.11] the EC50 was 100 to 1000 nM. Compound `CC1(C)CN(c2cnn3c2CN(C(=O)c2cc4ccc(Cl)cc4[nH]2)CC3)C(=O)O1` [Compound 2.8] has an EC50 of under 100 nM. For `Cc1c(C(=O)N2CCn3ncc(N4CC(C)(C)OC4=O)c3C2)[nH]c2ccccc12` [Compound 2.2], the EC50 was over 1000 nM. With `COC[C@H]1CN(c2cnn3c2CN(C(=O)c2cc4ccccc4[nH]2)CC3)C(=O)O1` [Compound 3.1, (R)-3-(5-(1H-indole-2-carbonyl)-4,5,6,7-tetrahydropyrazolo[1,5-a]pyrazin-3-yl)-5-(methoxymethyl)oxazolidin-2-one] the EC50 was under 100 nM. `CC1(C)CN(c2cnn3c2CN(C(=O)c2cc4ccccc4[nH]2)CC3)C(=O)CO1` [Compound 1.5] showed an EC50 of 100 to 1000 nM. In the case of `Cc1ccc2[nH]c(C(=O)N3CCn4ncc(N5CC(C)(C)OC5=O)c4C3)cc2c1` [Compound 2.15], the EC50 is reported as 100 to 1000 nM. `O=C(c1cc2ccccc2[nH]1)N1CCc2noc(N3CCCCC3=O)c2C1` [Compound 4.1, 1-(5-(1H-indole-2-carbonyl)-4,5,6,7-tetrahydroisoxazolo[4,3-c]pyridin-3-yl)piperidin-2-one] showed an EC50 of under 100 nM. With `CC1(C)COC(=O)N(c2cnn3c2CN(C(=O)c2cc4ccccc4[nH]2)CC3)C1` [Compound 3.3] the EC50 was 100 to 1000 nM. `CC1(C)CC(=O)N(c2cnn3c2CN(C(=O)c2cc4ccccc4[nH]2)CC3)C1` [Compound 1.2] was tested, and the EC50 was 100 to 1000 nM. In the case of `CC1(C)CN(c2cnn3c2CN(C(=O)c2cc4cc(F)ccc4[nH]2)CC3)C(=O)O1` [Compound 2.6], the EC50 is reported as under 100 nM.
